Experimental data taken from PMC8746705, “Comparison of Experimental Strategies to Study L-Type Amino Acid Transporter 1 (LAT1) Utilization by Ligands” (Molecules, 2021).

Tests used:
LAT1 [1] = target: T1, LAT1 (Mus musculus, UniProt Q9Z127); assay: Cellular uptake of compounds in the presence of LAT1-inhibitor (KMH-233); assay type: cell-based; settings: 100 µM compound, 100 µM KMH-233, 30 min, BV2
Experimental: The competitive uptake in the presence of LAT1-inhibitor (KMH-233) was carried out as described above with HBSS buffer solution containing 100 µM of the studied compounds. The cells were pre-incubated with 100 µM LAT1-inhibitor for 10 min and the incubation mixture was removed before adding the studied compound and LAT1-inhibitor on the cells. The competitive uptake (30 min) with the inhibitor was then carried out as the normal uptake described above. The amounts of studied compounds were analyzed by the LC-MS method and calculated from the spiked standard curve and normalized with the protein concentrations.

LAT1 [2] = target: T1, LAT1; assay: Concentration-dependent cellular uptake into BV2 cells, Eadie–Hofstee analysis, Transport Type 1 (LAT1); assay type: cell-based; settings: 1–200 µM, 30 min, BV2; Eadie–Hofstee; mean ± SD, n = 3
Experimental: (§1) For the concentration-dependent cellular uptake experiments, the BV2 cells on 24-well plates were incubated with studied compounds (1–200 μM) in pre-warmed HBSS buffer (250 μL) at 37 °C for 30 min. The experiment was then carried out as described for the time-dependent uptake above and the concentration of studied compounds in the cell lysate was analyzed by the LC-MS/MS methods described above and the results were normalized to the total protein concentration. The distinct transport mechanisms were separated from the Michaelis-Menten kinetics by using Eadie–Hofstee plot.
(§2) The studied compounds (1–15) were analyzed by using Agilent 1200 Series Rapid Resolution LC System together with an Agilent 6410 Triple Quadrupole Mass Spectrometer equipped with an electrospray ionization source (Agilent Technologies, Santa Clara, CA, USA). The chromatographic separations of analytes were achieved by using a reversed-phase Zobrax SB-C18 column (50 mm × 2.1 mm, 1.8 μm; Agilent Technologies, Santa Clara, CA, USA) by eluting the samples with 0.1% formic acid in water (A) and 0.1% formic in ACN (B). Labetalol and diclofenac were used as internal standards (ISTD) for the prodrugs and parent drugs, respectively. The transitions used for the quantification at the positive ion mode and chromatographic conditions of each compound and their parent drugs are listed in Table S1. The methods of compounds 1–11 have been reported earlier, while the methods of compounds 12–15 are reported herein for the first time.

LAT1 [3] = target: T1, LAT1; assay: Cis-inhibition of radiolabelled LAT1-probe substrate uptake into BV2 cells; assay type: cell-based; settings: for IC50: 5 min, mean ± SD
Experimental: (§3) After removal of the culture medium, the BV2 cells were carefully washed with pre-warmed HBSS (Hank’s balanced salt solution) containing 125.0 mM choline chloride, 4.8 mM KCl, 1.2 mM MgSO4, 1.2 mM KH2PO4, 1.3 mM CaCl2, 5.6 mM glucose, and 25.0 mM HEPES (pH 7.4 adjusted with 1 M NaOH). Pre-incubation was done with 500 μL of pre-warmed HBSS at 37 °C for 10 min before adding substrates (250 μL in HBSS) for the uptake experiments.
The ability of compounds 1–15 to inhibit the uptake of a known LAT1 substrate [^14C]-L-leucine was then evaluated by incubating the cells at 37 °C for 5 min in uptake buffer pH 7.4 (250 μL) containing 0.2 µCi/mL of [^14C]-L-leucine, or 2 µCi/mL of [^3H]-L-methionine, [^3H]-L-tryptophan or [^3H]-L-kynurenine (PerkinElmer, Waltham, MA, USA) and 0.1–1000 μM of the studied compound (or HBSS as blank). After incubation, the uptake was stopped by adding 250 µL of ice-cold HBSS, and the cells were washed two times with ice-cold HBSS. The cells were then lysed with 500 μL of NaOH (0.1 M) for 60 min and the lysate was mixed with 3.5 mL of Emulsifier safe cocktail (Ultima Gold, PerkinElmer, Waltham, MA, USA). The radioactivity in the cells was measured by liquid scintillation counting (MicroBeta^2 counter, PerkinElmer Waltham, MA, USA). Half of the maximum inhibitory concentration (IC50) values were calculated by nonlinear regression analysis (fitting the curve to log (concentration) vs. remaining normalized […]).

Transport Type 2 = assay: Concentration-dependent cellular uptake into BV2 cells, Eadie–Hofstee analysis, Transport Type 2; assay type: cell-based, mouse; settings: 1–200 µM, 30 min, mean ± SD, n = 3
Experimental: as §1, §2

[4] = Time-dependent cellular uptake of compounds into BV2 cells (LC-MS/MS); assay type: cell-based, mouse; settings: mouse, BV2 microglia cells, 100 µM compound, 1–60 min, mean ± SD, n = 3, read-out: T½ of cellular uptake
Experimental: (§4) For the time-dependent cellular uptake experiments, the BV2 cells on 24-well plates were incubated with studied compounds (100 μM) in a pre-warmed HBSS buffer (250 μL) at 37 °C for 1–60 min. Subsequently, the cells were washed three times with an ice-cold HBSS and lysed with 250 μL of NaOH (0.1 M) for 60 min. The lysates were diluted with acetonitrile (ACN) including the selected internal standard (diclofenac to all compounds) with a ratio of 1:3 and centrifuged at 10,000× g for 10 min. The samples were analyzed by the liquid chromatography-tandem mass spectrometric (LC-MS/MS) methods as described below. The concentrations of each compound in cell lysates were calculated from the standard curve that was prepared by spiking known amounts of compounds to ACN including the selected internal standard and then normalized with protein concentration. The protein concentrations on each plate were determined as a mean of three samples by Bio-Rad Protein Assay, based on the Bradford dye-binding method, using bovine serum albumin (BSA) as a standard protein and measuring the absorbance (595 nm) by multiplate reader (EnVision, Perkin Elmer, Inc., Waltham, MA, USA).
as §2

[5] = test system: immortalized mouse microglia (BV2); assay: as above; assay type: cell-based
Experimental: as §4, §2

LAT1 [6] = target: T1, LAT1; assay: Inhibition type of [14C]-L-Leu uptake (Hanes-Woolf plots) in BV2 cells; assay type: cell-based; settings: for Vmax of [14C]-L-Leu uptake: 0.010–0.20 µM [14C]-L-Leu in the presence of the compound at its IC50, mean ± SD, n = 3–4; for Vmax of [14C]-L-Leu uptake / Inhibition Type: BV2; for Inhibition Type: of [14C]-L-Leu uptake, concluded from Km and Vmax
Experimental: as §3
To evaluate the inhibition type of studied compounds, the BV2 cells were incubated with 0.010–0.20 μM [^14C]-L-leucine together with the studied compound. The concentration of compounds was selected according to the compound-specific IC50 values. The experiment was then carried out as described for the [^14C]-L-leucine uptake above and the radioactivity was measured by liquid scintillation counting. Hanes-Woolf plots were created by setting the ratio of initial substrate concentration to the reaction velocity ([S]/v) against [^14C]-L-leucine concentration (µM). The linear regression was used to calculate Km value (negative value of x-intercept) and Vmax value (1/slope) for [^14C]-L-leucine.

LAT1 [7] = target: T1, LAT1; assay: Cellular uptake of L-leucine after pre-incubation of BV2 cells with the compounds; assay type: cell-based; settings: 100 µM (L-glutamine 2 mM) pre-incubated 10 min or 3 h, L-leucine 1–400 µM, 5 min
Experimental: The ability of compounds 1–15 to affect the uptake of a known LAT1 substrate L-leucine was evaluated by pre-incubating the BV2 cells at 37 °C for 10 min or 3 h with uptake buffer pH 7.4 (250 μL) containing 100 µM of compounds 1–15 or thyroxin (T4), or known nuclear receptor inducible compounds, phenobarbital (constitutive androstane receptor, CAR), and dexamethasone (pregnane X receptor, PXR) as controls. […] After incubation, the reaction was stopped by adding 250 µL of ice-cold HBSS, and the cells were washed two times with ice-cold HBSS. The cells were then lysed with 500 μL of 0.1 M NaOH (60 min) and the lysate was mixed with 3.5 mL of Emulsifier safe cocktail (Ultima Gold, PerkinElmer, Waltham, MA, USA). The radioactivity in the cells was measured by liquid scintillation counting (MicroBeta^2 counter, PerkinElmer Waltham, MA, USA). The results were multiplied by the amount of un-labeled proportion of L-leucine in each sample.

LAT1 [8] = assay: Quantitative expression of LAT1 on the BV2 plasma membrane (LC-MS proteomics); assay type: cell-based, mouse; settings: BV2 cells incubated 24 h; normalized to Na+/K+ATPase; compared to untreated control
Experimental: The protein expression levels of LAT1, in the plasma membrane fractions of BV2 cells were quantified using multiplexed MRM analysis according to the protocol described by Uchida et al.. First, the crude membrane fractions were isolated from three distinct sets of cell culture plates using Membrane Protein Extraction Kit (BioVision Incorporated, Milpitas, CA, USA) according to the manufacturer’s instructions. The protein content for each fraction was measured by Bio-Rad Protein Assay, based on the Bradford dye-binding method (EnVision, Perkin Elmer, Inc., Waltham, MA, USA). A total amount of 50 µg protein from each fraction was solubilized/denatured in 7 M guanidine hydrochloride, 0.5 M Tris-HCl and 10 mM EDTA-Na. The proteins were then reduced by dithiothreitol (1:50, w/w) and S-carboxymethylated by iodoacetamide (1:20, w/w). The alkylated proteins were precipitated by methanol/chloroform/water (4:1:3) and centrifuged at 18,000× g for 5 min at 4 °C. The pellet was resuspended in 6 M urea and mixed for 10 min at room temperature before the dilution with 0.1 M Tris-HCl (pH 8.5) to a final concentration of 1.2 M urea, and dissolved completely by intermittent sonication (Branson 3510, Danbury, CT, USA). The dissolved proteins were first digested with LysC (1/100, w/w) and 0.05% ProteaseMax (Promega Biotech AB, Nacka, Sweden) for 3 h at room temperature. Then, the samples were spiked with 10 µL (30 fmol) of the labelled peptides for absolute quantification (JPT Peptide Technologies GmbH, Berlin, Germany) (Table S2). The samples were incubated with (1/100, w/w) TPCK-Trypsin (Promega Biotech AB, Nacka, Sweden) for 18 h at 37 °C. The tryptic digestion was then quenched by adding 40 µL of 5% formic acid. The samples were then centrifuged at 18,000× g for 5 min at 4 °C, and the supernatants were transferred to vials for analysis.
The digested peptides were analyzed using an ultra-performance liquid chromatography system coupled with a triple quadrupole mass spectrometer with a heated electrospray ionization source in the positive mode (UPLC 1290 and MSD 6495, Agilent Technologies, Santa Clara, CA, USA). A total amount of 20 µL of the digested peptides (10 µg) was separated using AdvanceBio Peptide Map 2.1 × 250 mm, 2.7 μm column (Agilent Technologies, Santa Clara, CA, USA) and LC eluents of 0.1% formic acid in water (A) and acetonitrile (B). The peptides were eluted following a constant flow rate of 0.3 mL/min and a gradient of 2–7% B for 2 min, followed by 7–30% B for 48 min, 30–45% B for 3 min, and 45–80% B for 2.5 min before re-equilibrating the column again for 4.5 min. LAT1 was quantified based on the ratio between the light and heavy standard peptides, as described previously (Table S2). Data was acquired using Agilent MassHunter Workstation Acquisition (Agilent Technologies, Data Acquisition for Triple Quadrupole, version B.03.01) and processed by using Skyline software (version 20.1). The results were normalized to a housekeeping protein Na+/K+ATPase and expressed as fmol/µg of the total amount of protein in the samples.

[9] = probe [3H]-L-Kynu, n = 3–4, read-out: IC50 of [3H]-L-Kynu uptake
[10] = probe [3H]-L-Met, n = 3–4, read-out: IC50 of [3H]-L-Met uptake
[11] = probe [3H]-L-Trp, n = 3–4, read-out: IC50 of [3H]-L-Trp uptake
[12] = 100 µM compound, 1–60 min, mean ± SD, n = 3

T1 sequence (Q9Z127 whole entry): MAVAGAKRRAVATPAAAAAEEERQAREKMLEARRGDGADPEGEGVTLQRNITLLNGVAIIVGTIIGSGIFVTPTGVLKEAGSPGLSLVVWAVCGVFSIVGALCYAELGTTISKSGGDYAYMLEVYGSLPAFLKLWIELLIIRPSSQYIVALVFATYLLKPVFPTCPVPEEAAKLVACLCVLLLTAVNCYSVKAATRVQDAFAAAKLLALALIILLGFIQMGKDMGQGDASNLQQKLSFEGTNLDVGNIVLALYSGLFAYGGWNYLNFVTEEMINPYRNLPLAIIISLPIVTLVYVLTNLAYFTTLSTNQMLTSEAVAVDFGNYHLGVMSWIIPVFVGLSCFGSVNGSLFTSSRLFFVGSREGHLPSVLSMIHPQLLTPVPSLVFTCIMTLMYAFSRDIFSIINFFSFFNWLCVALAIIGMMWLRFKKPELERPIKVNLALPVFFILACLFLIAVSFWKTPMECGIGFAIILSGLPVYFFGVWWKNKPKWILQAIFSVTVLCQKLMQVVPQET
T1 sequence (P10852 whole entry partner): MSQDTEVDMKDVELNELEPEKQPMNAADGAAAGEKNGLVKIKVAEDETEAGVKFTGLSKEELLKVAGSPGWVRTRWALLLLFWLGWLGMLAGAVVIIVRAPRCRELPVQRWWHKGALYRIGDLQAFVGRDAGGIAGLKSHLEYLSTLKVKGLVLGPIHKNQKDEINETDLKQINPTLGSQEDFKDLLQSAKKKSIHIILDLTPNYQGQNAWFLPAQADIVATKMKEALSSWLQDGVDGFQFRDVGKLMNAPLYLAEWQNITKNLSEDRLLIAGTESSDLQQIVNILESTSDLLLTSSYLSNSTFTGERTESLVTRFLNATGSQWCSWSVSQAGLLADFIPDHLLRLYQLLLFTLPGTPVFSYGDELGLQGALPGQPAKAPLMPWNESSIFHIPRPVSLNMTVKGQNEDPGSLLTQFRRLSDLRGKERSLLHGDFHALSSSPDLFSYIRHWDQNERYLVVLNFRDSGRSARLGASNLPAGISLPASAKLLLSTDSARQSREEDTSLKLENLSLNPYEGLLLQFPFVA

Row | SMILES | Cellular uptake in the presence of LAT1-inhibitor (LAT1 [1]) | Km (LAT1 [2]) [µM] | Transport Type 1 (LAT1) Vmax (LAT1 [2]) [pmol/mg/min] | IC50 (LAT1 [3]; [9]) [µM] | IC50 (LAT1 [3]; [10]) [µM] | IC50 (LAT1 [3]; [11]) [µM] | half-life at 100 μM [4] [min] | Max. cellular uptake [5, 12] | Vmax of [14C]-L-Leu uptake (LAT1 [6]) [nmol/min/mg] | Inhibition Type (LAT1 [6]) | Effect on cellular uptake of L-Leu after pre-incubation (LAT1 [7]) | LAT1 expression on the plasma membrane (LAT1 [8]) | other results
1 | CC(C(=O)Nc1ccc(CC(N)C(=O)O)cc1)c1cccc(C(=O)c2ccccc2)c1 (stereo not shown) [Compound 3] | inhibited significantly | 1.9 ± 0.3 | 3.7 ± 0.5 | 11.9 ± 1.3 | 17.1 ± 1.9 | 39.2 ± 1.5 | 1.5 ± 0.67 | 1.96 ± 0.14 nmol/mg of protein | 2.851 ± 0.035 | Non-competitive | decreased the amount of L-Leu inside the cells | – | Inhibition of LAT1-probe substrate uptake / LAT1 affinity (LAT1 [3]; over all probe substrates): lower affinity and higher IC50 values; IC50 (LAT1 [3]; probe [14C]-L-Leu, n = 3–4, read-out: IC50 of [14C]-L-Leu uptake): 26 ± 1.1 µM; Km (Transport Type 2): 148 ± 41 µM; Transport Type 2 Vmax (Transport Type 2): 49 ± 9 pmol/mg/min
2 | CC(C)Cc1ccc([C@H](C)C(=O)Nc2cccc(C[C@H](N)C(=O)O)c2)cc1 [Compound 10] | only reductive trends were seen | 22 ± 6 | 205 ± 41 | 7.7 ± 1.1 | 9.6 ± 1.6 | 43.4 ± 1.5 | < 1 | 4.14 ± 0.31 nmol/mg of protein | 2.151 ± 0.066 | Mixed type | – | – | T½ of cellular uptake [5, 12]: 0.87 ± 0.55 min; LAT1-substrate or LAT1-binder ([5]; concluded from time-dependent uptake, 100 µM): LAT1-binders rather than substrates; IC50 (LAT1 [6]; Table 2, compound concentration used in the inhibition type study, corresponding to IC50 of [14C]-L-Leu uptake): 13 µM
3 | NC(=O)CC[C@H](N)C(=O)O [L-glutamine, reference compound] | – | – | – | – | – | – | – | – | – | – | decreased the amount of L-Leu inside the cells | – | –
4 | C[C@@H]1C[C@H]2[C@@H]3CCC4=CC(=O)C=C[C@]4(C)[C@@]3(F)[C@@H](O)C[C@]2(C)[C@@]1(O)C(=O)CO [dexamethasone, reference compound] | – | – | – | – | – | – | – | – | – | – | – | did not have any effect on LAT1 expression | –
5 | CCC1(c2ccccc2)C(=O)NC(=O)NC1=O [phenobarbital, reference compound] | – | – | – | – | – | – | – | – | – | – | – | did not have any effect on LAT1 expression | –
